Laboratory results reported in US9266842B2, “Anti-malarial agents” (UNIVERSITY OF CAPE TOWN, priority 2012, dated 2016).
In brackets after ≈: the same amount, converted by molar mass.

Columns and labels:
P. falciparum NF54 = experiment: Anti-malarial in vitro efficacy, assay 1, P. falciparum NF54; type: cell-based; conditions: Plasmodium falciparum, strain NF54
Procedure: (§1) The ability of aminopyrazine derivatives according to the invention to kill P. falciparum parasites and/or to inhibit its proliferation is tested as follows:
(§2) The protocol used was as described in the supplemental material to Fiddock et al., 2004, Nature Reviews Drug Discovery, (3), p 509.
(§3) EC50s (ng/ml) are reported in Table 3 below against different strains of P. falciparum K1, NF54 (assay 1).

parasitemia = experiment: Anti-malarial in vivo efficacy, inhibition of parasitemia after 4 daily oral doses; conditions: for inhibition in vivo at 3 mg/kg: read-out: percentages of inhibition of parasitemia, 3 mg/kg po; for inhibition in vivo at 10 mg/kg: read-out: percentages of inhibition of parasitemia, 10 mg/kg po
Source text: The ability of aminopyrazine derivatives according to the invention to show antimalarial efficacy in vivo can be tested by using the protocols described in the supplemental material to Fidock et al., 2004, Nature Reviews Drug Discovery, (3), p 509.

P. falciparum K1 = experiment: Anti-malarial in vitro efficacy, assay 1, P. falciparum K1; type: cell-based; conditions: Plasmodium falciparum, strain K1
Procedure: as §1, §2, §3

| EC50 (P. falciparum NF54) [ng/mL] | EC50 (P. falciparum K1) [ng/mL] | SMILES | inhibition in vivo at 3 mg/kg (parasitemia) [%] | inhibition in vivo at 10 mg/kg (parasitemia) [%] |
| --- | --- | --- | --- | --- |
| 7.8 (≈ 21.7 nM) | 5.8 (≈ 16.1 nM) | NC(=O)c1ccc(-c2cnc(N)c(-c3ccc(C(F)(F)F)nc3)n2)cc1 [Compound 5, 4-(5-amino-6-(6-(trifluoromethyl)pyridin-3-yl)pyrazin-2-yl)benzamide] | 99.4 | 99.9 |
|  | 4.1 (≈ 9.55 nM) | Nc1ncc(-c2ccc(C(=O)N3CCOCC3)cc2)nc1-c1ccc(C(F)(F)F)nc1 [Compound 10, (4-(5-amino-6-(6-(trifluoromethyl)pyridin-3-yl)pyrazin-2-yl)phenyl) (morpholino) methanone] |  |  |
| 5.9 (≈ 13.3 nM) | 4.3 (≈ 9.72 nM) | Nc1ncc(-c2ccc(C(=O)N3CCCNCC3)cc2)nc1-c1ccc(C(F)(F)F)nc1 [Compound 26, (4-(5-amino-6-(6-(trifluoromethyl)pyridin-3-yl)pyrazin-2-yl)phenyl) (1,4-diazepan-1-yl)methanone] |  |  |
| 8.8 (≈ 20.6 nM) | 4.8 (≈ 11.2 nM) | Nc1ncc(-c2ccc(C(=O)N3CCC(N)C3)cc2)nc1-c1ccc(C(F)(F)F)cc1 (centres unmarked) [Compound 29, (4-(5-amino-6-(4-(trifluoromethyl)phenyl)pyrazin-2-yl)phenyl)(3-aminopyrrolidin-1-yl)methanone] |  |  |
| 4.6 (≈ 10.7 nM) | 4 (≈ 9.34 nM) | Nc1ncc(-c2ccc(C(=O)N3CCNCC3)cc2)nc1-c1ccc(C(F)(F)F)nc1 [Compound 9, (4-(5-amino-6-(6-(trifluoromethyl)pyridin-3-yl)pyrazin-2-yl)phenyl)(piperazin-1-yl) methanone] |  |  |
|  | 17 (≈ 47.7 nM) | COc1ccc(-c2nc(-c3ccc(S(C)(=O)=O)cc3)cnc2N)cn1 [Compound 1, 3-(6-methoxypyridin-3-yl)-5-(4-(methylsulfonyl)phenyl)pyrazin-2-amine] |  |  |
| 4.1 (≈ 9.57 nM) | 2.9 (≈ 6.77 nM) | Nc1ncc(-c2ccc(C(=O)N3CCC(O)C3)cc2)nc1-c1ccc(C(F)(F)F)cc1 (centres unmarked) [Compound 21, (4-(5-amino-6-(4-(trifluoromethyl)phenyl)pyrazin-2-yl)phenyl)(3-hydroxypyrrolidin-1-yl)methanone] | 99.6 |  |
| 5.7 (≈ 15.9 nM) | 4.9 (≈ 13.7 nM) | NC(=O)c1ccc(-c2cnc(N)c(-c3ccc(C(F)(F)F)cc3)n2)cc1 [Compound 4, 4-(5-amino-6-(4-(trifluoromethyl)phenyl)pyrazin-2-yl)benzamide] | 99.9 | 99.9 |
| 3.5 (≈ 7.93 nM) | 3 (≈ 6.8 nM) | CN1CCN(C(=O)c2ccc(-c3cnc(N)c(-c4ccc(C(F)(F)F)cc4)n3)cc2)CC1 [Compound 6, (4-(5-amino-6-(4-(trifluoromethyl)phenyl)pyrazin-2-yl)phenyl)(4-methylpiperazin-1-yl) methanone] | 99.9 | 99.9 |
| 8.5 (≈ 19.2 nM) | 7.6 (≈ 17.2 nM) | Nc1ncc(-c2ccc(C(=O)N3CCC(N)CC3)cc2)nc1-c1ccc(C(F)(F)F)nc1 [Compound 31, (4-(5-amino-6-(6-(trifluoromethyl)pyridin-3-yl)pyrazin-2-yl)phenyl)(4-aminopiperidinyl)methanone] |  |  |
| 18 (≈ 47.8 nM) | 18 (≈ 47.8 nM) | NC(=O)c1ccc(-c2cnc(N)c(-c3ccc(C(F)(F)F)c(F)c3)n2)cc1 [Compound 13, 4-(5-amino-6-(3-fluoro-4-(trifluoro-methyl)phenyl)pyrazin-2-yl) benzamide] | 99.9 | 99.9 |
|  | 4.8 (≈ 12.2 nM) | CS(=O)(=O)c1ccc(-c2cnc(N)c(-c3ccc(C(F)(F)F)nc3)n2)cc1 [Compound 3, 5-(4-(methylsulfonyl)phenyl)-3-(6-(trifluoromethyl)pyridin-3-yl)pyrazin-2-amine] |  |  |
| 4.5 (≈ 10.1 nM) | 4 (≈ 9.02 nM) | Nc1ncc(-c2ccc(C(=O)N3CCC(O)CC3)cc2)nc1-c1ccc(C(F)(F)F)nc1 [Compound 22, (4-(5-amino-6-(6-(trifluoromethyl)pyridin-3-yl)pyrazin-2-yl)phenyl)(4-hydroxypiperidin-1-yl)methanone] |  |  |
| 4.3 (≈ 8.87 nM) | 3.1 (≈ 6.4 nM) | CC(C)(C)N1CCN(C(=O)c2ccc(-c3cnc(N)c(-c4ccc(C(F)(F)F)nc4)n3)cc2)CC1 [Compound 24, (4-(5-amino-6-(6-(trifluoromethyl)pyridin-3-yl)pyrazin-2-yl)phenyl)(4-(tert-butyl)piperazin-1-yl)methanone] | 87.6 |  |
| 8.2 (≈ 17 nM) | 5.5 (≈ 11.4 nM) | CC(C)(C)N1CCN(C(=O)c2ccc(-c3cnc(N)c(-c4ccc(C(F)(F)F)cc4)n3)cc2)CC1 [Compound 20, (4-(5-amino-6-(4-(trifluoromethyl)phenyl)pyrazin-2-yl)phenyl)(4-tert-butylpiperazin-1-yl)methanone] |  |  |
| 2.6 (≈ 6.07 nM) |  | Nc1ncc(-c2ccc(C(=O)N3CC[C@H](O)C3)cc2)nc1-c1ccc(C(F)(F)F)cc1 [Compound 36, (S)-(4-(5-amino-6-(4-(trifluoro-methyl)phenyl)pyrazin-2-yl)phenyl)(3-hydroxypyrrolidin-1-yl)methanone] | 99.9 | 99.9 |
| 6.9 (≈ 15.1 nM) | 4.5 (≈ 9.86 nM) | CN1CCCN(C(=O)c2ccc(-c3cnc(N)c(-c4ccc(C(F)(F)F)nc4)n3)cc2)CC1 [Compound 12, (4-(5-amino-6-(6-(trifluoromethyl)pyridin-3-yl)pyrazin-2-yl)phenyl)(4-methyl-1,4-diazepan-1-yl)methanone] | 99.9 |  |
| 3.2 (≈ 7.47 nM) |  | Nc1ncc(-c2ccc(C(=O)N3CC[C@@H](O)C3)cc2)nc1-c1ccc(C(F)(F)F)cc1 [Compound 35, (R)-(4-(5-amino-6-(4-(trifluoro-methyl)phenyl)pyrazin-2-yl)phenyl)(3-hydroxypyrrolidin-1-yl) methanone] | 99.9 | 99.9 |
| 8.6 (≈ 20 nM) | 5.2 (≈ 12.1 nM) | Nc1ncc(-c2ccc(C(=O)N3CCC(O)C3)cc2)nc1-c1ccc(C(F)(F)F)nc1 (centres unmarked) [Compound 30, (4-(5-amino-6-(6-(trifluoromethyl)pyridin-3-yl)pyrazin-2-yl)phenyl)(3-hydroxypyrrolidin-1-yl)methanone] |  |  |
| 17 (≈ 39.7 nM) | 10 (≈ 23.3 nM) | Nc1ncc(-c2ccc(C(=O)N3CCC(N)C3)cc2)nc1-c1ccc(C(F)(F)F)nc1 (centres unmarked) [Compound 28, (4-(5-amino-6-(6-(trifluoromethyl)pyridin-3-yl)pyrazin-2-yl)phenyl)(3-aminopyrrolidin-1-yl)methanone] |  |  |
| 2.4 (≈ 5.42 nM) | 2.2 (≈ 4.97 nM) | Nc1ncc(-c2ccc(C(=O)N3CCC(O)CC3)cc2)nc1-c1ccc(C(F)(F)F)cc1 [Compound 23, (4-(5-amino-6-(4-(trifluoromethyl)phenyl)pyrazin-2-yl)phenyl)(4-hydroxypiperidin-1-yl)methanone] | 98.7 |  |
|  | 4 (≈ 9.51 nM) | Nc1ncc(-c2ccc(S(=O)(=O)C3CC3)cc2)nc1-c1ccc(C(F)(F)F)nc1 [Compound 34, 5-(4-(cyclopropylsulfonyl)phenyl)-3-(6-(trifluoromethyl)pyridin-3-yl) pyrazin-2-amine] |  |  |
| 4.3 (≈ 9.74 nM) | 2.9 (≈ 6.57 nM) | Nc1ncc(-c2ccc(C(=O)N3CCC(N)CC3)cc2)nc1-c1ccc(C(F)(F)F)cc1 [Compound 32, (4-(5-amino-6-(4-(trifluoromethyl)phenyl)pyrazin-2-yl)phenyl)(4-aminopiperidinyl)methanone] |  |  |
|  | 4 (≈ 10.2 nM) | CS(=O)(=O)c1ccc(-c2cnc(N)c(-c3ccc(C(F)(F)F)cc3)n2)cc1 [Compound 2, 5-(4-(methylsulfonyl)phenyl)-3-(4-(trifluoromethyl)phenyl)pyrazin-2-amine] |  |  |
| 3.1 (≈ 6.81 nM) | 2.6 (≈ 5.71 nM) | CN1CCCN(C(=O)c2ccc(-c3cnc(N)c(-c4ccc(C(F)(F)F)cc4)n3)cc2)CC1 [Compound 25, (4-(5-amino-6-(4-(trifluoromethyl)phenyl)pyrazin-2-yl)phenyl)(4-methyl-1,4-diazepan-1-yl)methanone] | 90 |  |
| 3.2 (≈ 7.25 nM) | 2.2 (≈ 4.98 nM) | Nc1ncc(-c2ccc(C(=O)N3CCCNCC3)cc2)nc1-c1ccc(C(F)(F)F)cc1 [Compound 27, (4-(5-amino-6-(4-(trifluoromethyl)phenyl)pyrazin-2-yl)phenyl)(1,4-diazepan-1-yl)methanone] | 88 |  |
|  | 3.1 (≈ 7.24 nM) | Nc1ncc(-c2ccc(C(=O)N3CCOCC3)cc2)nc1-c1ccc(C(F)(F)F)cc1 [Compound 11, (4-(5-amino-6-(4-(trifluoromethyl)phenyl)pyrazin-2-yl)phenyl)(morpholino)methanone] |  |  |
| 8.5 (≈ 25.5 nM) | 7.1 (≈ 21.3 nM) | NC(=O)c1ccc(-c2cnc(N)c(-c3ccc(C(N)=O)cc3)n2)cc1 [Compound 15, 4,4′-(3-aminopyrazine-2,6-diyl) dibenzamide] |  |  |
| 2.3 (≈ 5.38 nM) | 2.1 (≈ 4.91 nM) | Nc1ncc(-c2ccc(C(=O)N3CCNCC3)cc2)nc1-c1ccc(C(F)(F)F)cc1 [Compound 8, (4-(5-amino-6-(4-(trifluoromethyl)phenyl)pyrazin-2-yl)phenyl)(piperazin-1-yl)methanone] | 99.9 | 99.9 |
| 4.4 (≈ 9.94 nM) | 4.4 (≈ 9.94 nM) | CN1CCN(C(=O)c2ccc(-c3cnc(N)c(-c4ccc(C(F)(F)F)nc4)n3)cc2)CC1 [Compound 7, (4-(5-amino-6-(6-(trifluoromethyl)pyridin-3-yl)pyrazin-2-yl)phenyl)(4-methylpiperazin-1-yl)methanone] | 81 | 99.8 |
